From publication PMC11912471 (Journal of Medicinal Chemistry, 2025)

Tests used:
[1] = molecular target: T1, purified human ODC enzyme (Homo sapiens, UniProt P11926); assay: In vitro ODC enzyme activity assay; type: biochemical; conditions: read-out: ODC biochemical inhibition % (50 μM)
T1 construct: His6 (C); made in house; host or cells: E. coli BL21(DE3)
T1 sequence (P11926 1-461): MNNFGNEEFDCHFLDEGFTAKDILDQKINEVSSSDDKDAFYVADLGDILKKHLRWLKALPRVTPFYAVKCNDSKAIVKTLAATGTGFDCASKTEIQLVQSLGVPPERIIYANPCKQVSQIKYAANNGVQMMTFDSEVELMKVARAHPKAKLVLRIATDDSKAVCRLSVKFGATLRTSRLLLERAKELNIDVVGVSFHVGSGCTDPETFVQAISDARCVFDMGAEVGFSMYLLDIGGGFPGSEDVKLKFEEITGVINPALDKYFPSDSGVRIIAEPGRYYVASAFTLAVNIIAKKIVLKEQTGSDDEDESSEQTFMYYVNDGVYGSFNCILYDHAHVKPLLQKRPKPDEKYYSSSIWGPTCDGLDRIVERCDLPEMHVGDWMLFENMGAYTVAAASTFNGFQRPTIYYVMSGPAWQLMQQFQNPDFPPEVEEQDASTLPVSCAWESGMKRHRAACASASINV
Protocol: (§1) Our strategy to identify novel ODC inhibitors was to first screen new analogs for ODC inhibition at 50 μM using our in vitro enzyme activity assay and purified human ODC (Table 1). Those showing significant inhibition were then titrated to provide an ODC IC50 followed by cell-based screening against both cancer (Kelly neuroblastoma) and noncancerous (neonatal fibroblasts) cell lines. For the cancer cell line, higher cytotoxicity was desired and for the noncancerous cell line counter screen, lower cytotoxicity was desired.
In vitro ODC activity was measured using 100 ng of purified human ODC enzyme, as we previously described.[53],[99] ODC was incubated with increasing concentrations of inhibitors for 30 min at room temperature in a buffer containing 25 mM Tris and 0.1 mM EDTA. […] In the cell-based ODC activity assay, Kelly neuroblastoma cells that were treated with 500 μM inhibitors were harvested in a buffer containing 25 mM Tris HCl, 0.1 mM EDTA, and 2.5 mM DTT. […] For both the in vitro and cell-based assay, the microcentrifuge tubes were then placed into scintillation vials containing a piece of filter paper saturated with 200 μL of 0.1 M NaOH to capture the release of radiolabeled carbon dioxide. The samples were incubated in a 37 °C incubator while shaking for 30 min (in vitro) or 2 h (cell-based). The enzymatic reaction was stopped by adding 250 μL of 5 M sulfuric acid to each sample and incubating at 37 °C while shaking for 30 min. The microcentrifuge tubes were removed from the scintillation vials, and 5 mL of scintillation fluid was added. Disintegrations per minute (DPM) of each sample was measured using a TriCarb liquid scintillation counter (PerkinElmer). The specific ODC activity is expressed as nmol CO2/min/mg protein (in vitro) or pmol CO2/min/mg protein (cell-based). The individual ODC inhibitor IC50 values were determined using Graphpad Prism 8.

[2] = system: Kelly neuroblastoma cells; assay: Sulforhodamine B (SRB) cytotoxicity assay, Kelly neuroblastoma cells; type: cell-based
Protocol: as §1
(§2) Normal primary human neonatal fibroblast cells (ATCC) were maintained in DMEM medium (Gibco) supplemented with 10% heat-inactivated fetal bovine serum (Hyclone), penicillin (100 IU/mL), and streptomycin (100 μg/mL), nonessential amino acids (0.1 mM) and sodium pyruvate (1 mM). Kelly neuroblastoma cells (Sigma-Aldrich) were maintained in RPMI medium (Corning) supplemented with 10% heat-inactivated fetal bovine serum (Hyclone), penicillin (100 IU/mL), and streptomycin (100 μg/mL). Cell lines were routinely monitored for mycoplasma contamination using the MycoAlert PLUS Mycoplasma Detection Kit (Lonza).
(§3) The colorimetric sulforhodamine B (SRB) assay was used to measure cytotoxicity following treatment with ODC inhibitors. Briefly, Kelly neuroblastoma cells and normal primary human neonatal fibroblast cells were plated in transparent flat 96-well plates and allowed to attach overnight. Cells were treated with control or 500 μM ODC inhibitor for 72 h. Cells were then fixed with 10% TCA at 4 °C for 1 h, washed with deionized water, and dried at room temperature. Cells were stained with 100 μL of 0.4% SRB in 1% acetic acid for 20 min at room temperature, rinsed five times with 1% acetic acid and allowed to dry at room temperature. One hundred μL of 10 mM Tris–HCl pH 7.0 was added to each well, shaken for 10 min at room temperature and absorbance was read at 540 nm. Absorbance values were normalized relative to control readings and converted to percentage by multiplying by one hundred. The percent cytotoxicity was then determined by subtracting the relative percentage of the ODC inhibitor treated readings from the control which is 100%.

[3] = Sulforhodamine B (SRB) cytotoxicity assay, neonatal fibroblasts; type: cell-based, human; conditions: human, normal primary neonatal fibroblast cells; 72 hrs @500 µM; supplement csv
Protocol: as §1, §2, §3

[4] = system: normal primary human neonatal fibroblast cells; assay: as above; type: cell-based; conditions: 500 μM
Protocol: as §1, §2, §3

[5] = system: polyamine levels in Kelly neuroblastoma cells; assay: Polyamine analysis (HPLC of dansylated polyamines); type: cell-based; conditions: 500 μM inhibitor
Protocol: Polyamines from Kelly neuroblastoma cells treated with 500 μM inhibitors were isolated, dansylated, and analyzed by HPLC. Briefly, polyamines were extracted and protonated in perchloric acid/sodium chloride buffer. To 100 μL of sample, 4.5 nmol of 1,7 diaminoheptane internal standard and 200 μL of 1 M sodium carbonate was added prior to dansylation with 400 μL of 5 mg/mL dansyl chloride (Sigma-Aldrich) for 60 min at 65 °C. One hundred μL of 1 M proline was then added to each reaction and incubated for 20 min at 65 °C. Polyamines were extracted from the mixture using methylene chloride. The methylene chloride was allowed to evaporate, the samples were resuspended in methanol and run through a C18 cleanup column. Samples were then analyzed using a Thermo Scientific/Dionex Ultimate 3000 HPLC, using a Syncronis C18 column (250 × 4.6 mm, […] pore size), and containing a fluorescence detector. The dansylated polyamine peaks were visualized by excitation at 340 nm and emission at 515 nm. The buffers used for elution of the polyamines were as follows: buffer A: 10 mM sodium heptanesulfonate/10% acetontrile at pH 3.4. Buffer B: 100% acetonitrile. The flow rate was 0.7 mL per minute. The column was equilibrated with 55% buffer B/45% buffer A prior to injection of the sample. Upon injection of the sample, elution of polyamines occurs in an isocratic solution of 55% buffer B/45% buffer A for 28 min. The solution was then slowly ramped to 95% buffer B/5% buffer A for 20 min. This gradient was held for 27 min to elute the spermine peak. The solution was then quickly dropped back to 55% buffer B/45% buffer A to re-equilibrate the column prior to the next sample being injected. Using the relative molar response derived from N-dansylated PA and 1,7 diaminoheptane standards, the amount of N-dansylated polyamines was calculated and normalized to total sample protein.

[6] = no reference printed for this property; cited from earlier work
[7] = cited from earlier work
[8] = set-up: method as in PMID 11004451; conditions: due to an amino acid transporter; cited from earlier work

NCCC[C@](N)(C(=O)O)C(F)F [DFMO, α-difluoromethylornithine]
inhibition at 50 µM [1]: 47%
activity against Kelly neuroblastoma cells (in words) ([2]; 72 h, 500 μM): relatively moderate cytotoxic activity
Cell cytotoxicity (72 hr @ 500 μM) Kelly Neuroblastoma ([2]; 72 hr, 500 μM, percent cytotoxicity): 26±9%
cytotoxicity at 500 µM ([2]; Kelly, 72 hrs @500 µM, supplement csv, read-out: Kelly Neuroblasoma Cells (72 hrs @500 µM) %cytotoxicity): 26%
cytotoxicity at 72 h, 500 µM [3]: 41%
cytotoxic activity against neonatal fibroblasts (in words) ([4]; 72 h): greater cytotoxic activity
Cell cytotoxicity (72 hr @ 500 μM) Neonatal Fibroblasts ([4]; 72 hr, percent cytotoxicity): 41±12%
Kelly Treated Neuroblastoma Cells (Total Spm) ([5]; Control = 2.57+0.47): 3.52+0.35
Kelly Treated Neuroblastoma Cells (Spd) ([5]; Control = 8.52+1.63): 1.99+1.06
Kelly Treated Neuroblastoma Cells (Total Put) ([5]; Control = 9.71+1.31): 0
Kelly Treated Neuroblastoma Cells (Total PA) ([5]; Control = 20.81 +2.67): 5.51+1.06
putrescine level (in words) ([5]; Kelly neuroblastoma cells, Figure 6B): undetected
spermidine and spermine levels (in words) ([5]; Kelly neuroblastoma cells, relative to APA): greatest reductions
water solubility (in words) [6]: water-soluble
clearance (in words) [7]: rapid clearance
permeability (in words) [8]: permeable
